Measured values reported in the NIST ThermoML archive (doi:10.1016/j.jct.2019.03.023).
Several values for one entry are separate records, joined by “and”; a condition that tells them apart may be missing. Identical values can stand only once. Numbers after ± are expanded uncertainties.

Assay: molar heat capacity at constant volume
Settings: Vacuum adiabatic calorimetry

CC(C)O [propan-2-ol]
molar heat capacity at constant volume (380.8 K, Fluid (supercritical or subcritical phases), Mass density=697.69 kg/m3): 187.08 ± 5.6 J/K/mol | molar heat capacity at constant volume (380.91 K, Fluid (supercritical or subcritical phases), Mass density=697.69 kg/m3): 187.8 ± 5.6 J/K/mol | molar heat capacity at constant volume (381.02 K, Fluid (supercritical or subcritical phases), Mass density=697.69 kg/m3): 186.29 ± 5.6 J/K/mol | molar heat capacity at constant volume (381.13 K, Fluid (supercritical or subcritical phases), Mass density=697.69 kg/m3): 184.61 ± 5.5 J/K/mol | molar heat capacity at constant volume (381.24 K, Fluid (supercritical or subcritical phases), Mass density=697.69 kg/m3): 185.39 ± 5.6 J/K/mol | molar heat capacity at constant volume (381.35 K, Fluid (supercritical or subcritical phases), Mass density=697.69 kg/m3): 184.49 ± 5.5 J/K/mol | molar heat capacity at constant volume (381.46 K, Fluid (supercritical or subcritical phases), Mass density=697.69 kg/m3): 184.01 ± 5.5 J/K/mol | molar heat capacity at constant volume (381.57 K, Fluid (supercritical or subcritical phases), Mass density=697.69 kg/m3): 184.67 ± 5.5 J/K/mol | molar heat capacity at constant volume (381.69 K, Fluid (supercritical or subcritical phases), Mass density=697.69 kg/m3): 184.97 ± 5.5 J/K/mol | molar heat capacity at constant volume (391.32 K, Fluid (supercritical or subcritical phases), Mass density=329.2 kg/m3): 243.38 ± 7.3 J/K/mol | molar heat capacity at constant volume (391.53 K, Fluid (supercritical or subcritical phases), Mass density=329.2 kg/m3): 248.85 ± 7.5 J/K/mol | molar heat capacity at constant volume (391.54 K, Fluid (supercritical or subcritical phases), Mass density=329.2 kg/m3): 243.44 ± 7.3 J/K/mol | molar heat capacity at constant volume (391.65 K, Fluid (supercritical or subcritical phases), Mass density=329.2 kg/m3): 246.93 ± 7.4 J/K/mol | molar heat capacity at constant volume (391.76 K, Fluid (supercritical or subcritical phases), Mass density=329.2 kg/m3): 235.69 ± 7.1 J/K/mol | molar heat capacity at constant volume (391.87 K, Fluid (supercritical or subcritical phases), Mass density=329.2 kg/m3): 241.16 ± 7.3 J/K/mol | molar heat capacity at constant volume (391.98 K, Fluid (supercritical or subcritical phases), Mass density=329.2 kg/m3): 242.54 ± 7.3 J/K/mol | molar heat capacity at constant volume (392.09 K, Fluid (supercritical or subcritical phases), Mass density=329.2 kg/m3): 244.11 ± 7.3 J/K/mol | molar heat capacity at constant volume (392.2 K, Fluid (supercritical or subcritical phases), Mass density=329.2 kg/m3): 243.2 ± 7.3 J/K/mol | molar heat capacity at constant volume (399.51 K, Fluid (supercritical or subcritical phases), Mass density=343.1 kg/m3): 235.93 ± 7.1 J/K/mol | molar heat capacity at constant volume (399.72 K, Fluid (supercritical or subcritical phases), Mass density=343.1 kg/m3): 235.93 ± 7.1 J/K/mol | molar heat capacity at constant volume (399.83 K, Fluid (supercritical or subcritical phases), Mass density=343.1 kg/m3): 239.24 ± 7.2 J/K/mol | molar heat capacity at constant volume (399.94 K, Fluid (supercritical or subcritical phases), Mass density=343.1 kg/m3): 242.54 ± 7.3 J/K/mol | molar heat capacity at constant volume (400.04 K, Fluid (supercritical or subcritical phases), Mass density=343.1 kg/m3): 236.05 ± 7.1 J/K/mol | molar heat capacity at constant volume (400.15 K, Fluid (supercritical or subcritical phases), Mass density=343.1 kg/m3): 239.36 ± 7.2 J/K/mol | molar heat capacity at constant volume (400.25 K, Fluid (supercritical or subcritical phases), Mass density=343.1 kg/m3): 239.42 ± 7.2 J/K/mol | molar heat capacity at constant volume (400.36 K, Fluid (supercritical or subcritical phases), Mass density=343.1 kg/m3): 239.42 ± 7.2 J/K/mol | molar heat capacity at constant volume (400.46 K, Fluid (supercritical or subcritical phases), Mass density=343.1 kg/m3): 236.23 ± 7.1 J/K/mol | molar heat capacity at constant volume (400.57 K, Fluid (supercritical or subcritical phases), Mass density=343.1 kg/m3): 239.54 ± 7.2 J/K/mol | molar heat capacity at constant volume (416.55 K, Fluid (supercritical or subcritical phases), Mass density=329.2 kg/m3): 258.83 ± 7.8 J/K/mol | molar heat capacity at constant volume (416.65 K, Fluid (supercritical or subcritical phases), Mass density=329.2 kg/m3): 260.09 ± 7.8 J/K/mol | molar heat capacity at constant volume (416.76 K, Fluid (supercritical or subcritical phases), Mass density=329.2 kg/m3): 252.52 ± 7.6 J/K/mol | molar heat capacity at constant volume (416.86 K, Fluid (supercritical or subcritical phases), Mass density=329.2 kg/m3): 257.99 ± 7.8 J/K/mol | molar heat capacity at constant volume (416.97 K, Fluid (supercritical or subcritical phases), Mass density=329.2 kg/m3): 255.76 ± 7.7 J/K/mol | molar heat capacity at constant volume (417.08 K, Fluid (supercritical or subcritical phases), Mass density=329.2 kg/m3): 261.47 ± 7.9 J/K/mol | molar heat capacity at constant volume (417.18 K, Fluid (supercritical or subcritical phases), Mass density=329.2 kg/m3): 252.94 ± 7.6 J/K/mol | molar heat capacity at constant volume (417.29 K, Fluid (supercritical or subcritical phases), Mass density=329.2 kg/m3): 253.84 ± 7.6 J/K/mol | molar heat capacity at constant volume (417.39 K, Fluid (supercritical or subcritical phases), Mass density=329.2 kg/m3): 259.73 ± 7.8 J/K/mol | molar heat capacity at constant volume (417.5 K, Fluid (supercritical or subcritical phases), Mass density=329.2 kg/m3): 261.17 ± 7.8 J/K/mol | molar heat capacity at constant volume (442.12 K, Fluid (supercritical or subcritical phases), Mass density=329.2 kg/m3): 262.92 ± 7.9 J/K/mol | molar heat capacity at constant volume (442.23 K, Fluid (supercritical or subcritical phases), Mass density=329.2 kg/m3): 265.86 ± 8 J/K/mol | molar heat capacity at constant volume (442.33 K, Fluid (supercritical or subcritical phases), Mass density=329.2 kg/m3): 272.53 ± 8.2 J/K/mol | molar heat capacity at constant volume (442.43 K, Fluid (supercritical or subcritical phases), Mass density=329.2 kg/m3): 265.68 ± 8 J/K/mol | molar heat capacity at constant volume (442.54 K, Fluid (supercritical or subcritical phases), Mass density=329.2 kg/m3): 266.76 ± 8 J/K/mol | molar heat capacity at constant volume (442.64 K, Fluid (supercritical or subcritical phases), Mass density=329.2 kg/m3): 267.6 ± 8.1 J/K/mol | molar heat capacity at constant volume (442.74 K, Fluid (supercritical or subcritical phases), Mass density=329.2 kg/m3): 270.13 ± 8.1 J/K/mol | molar heat capacity at constant volume (442.85 K, Fluid (supercritical or subcritical phases), Mass density=329.2 kg/m3): 265.86 ± 8 J/K/mol | molar heat capacity at constant volume (447.55 K, Fluid (supercritical or subcritical phases), Mass density=581.06 kg/m3): 250.9 ± 7.5 J/K/mol | molar heat capacity at constant volume (447.75 K, Fluid (supercritical or subcritical phases), Mass density=581.06 kg/m3): 250.96 ± 7.5 J/K/mol | molar heat capacity at constant volume (447.85 K, Fluid (supercritical or subcritical phases), Mass density=581.06 kg/m3): 250.96 ± 7.5 J/K/mol | molar heat capacity at constant volume (447.95 K, Fluid (supercritical or subcritical phases), Mass density=581.06 kg/m3): 253.06 ± 7.6 J/K/mol | molar heat capacity at constant volume (448.05 K, Fluid (supercritical or subcritical phases), Mass density=581.06 kg/m3): 255.1 ± 7.6 J/K/mol | molar heat capacity at constant volume (448.15 K, Fluid (supercritical or subcritical phases), Mass density=581.06 kg/m3): 251.08 ± 7.5 J/K/mol | molar heat capacity at constant volume (448.25 K, Fluid (supercritical or subcritical phases), Mass density=581.06 kg/m3): 251.08 ± 7.5 J/K/mol | molar heat capacity at constant volume (448.35 K, Fluid (supercritical or subcritical phases), Mass density=581.06 kg/m3): 253.18 ± 7.6 J/K/mol | molar heat capacity at constant volume (448.54 K, Fluid (supercritical or subcritical phases), Mass density=581.06 kg/m3): 253.06 ± 7.6 J/K/mol | molar heat capacity at constant volume (448.64 K, Fluid (supercritical or subcritical phases), Mass density=581.06 kg/m3): 255.16 ± 7.6 J/K/mol | molar heat capacity at constant volume (448.74 K, Fluid (supercritical or subcritical phases), Mass density=581.06 kg/m3): 253.12 ± 7.6 J/K/mol | molar heat capacity at constant volume (448.84 K, Fluid (supercritical or subcritical phases), Mass density=581.06 kg/m3): 251.14 ± 7.5 J/K/mol | molar heat capacity at constant volume (448.94 K, Fluid (supercritical or subcritical phases), Mass density=581.06 kg/m3): 253.18 ± 7.6 J/K/mol | molar heat capacity at constant volume (449.04 K, Fluid (supercritical or subcritical phases), Mass density=581.06 kg/m3): 253.24 ± 7.6 J/K/mol | molar heat capacity at constant volume (449.14 K, Fluid (supercritical or subcritical phases), Mass density=581.06 kg/m3): 255.28 ± 7.7 J/K/mol | molar heat capacity at constant volume (449.24 K, Fluid (supercritical or subcritical phases), Mass density=581.06 kg/m3): 253.3 ± 7.6 J/K/mol | molar heat capacity at constant volume (449.34 K, Fluid (supercritical or subcritical phases), Mass density=581.06 kg/m3): 253.3 ± 7.6 J/K/mol | molar heat capacity at constant volume (449.44 K, Fluid (supercritical or subcritical phases), Mass density=581.06 kg/m3): 253.3 ± 7.6 J/K/mol | molar heat capacity at constant volume (449.63 K, Fluid (supercritical or subcritical phases), Mass density=581.06 kg/m3): 251.56 ± 7.6 J/K/mol | molar heat capacity at constant volume (449.73 K, Fluid (supercritical or subcritical phases), Mass density=581.06 kg/m3): 253.6 ± 7.6 J/K/mol | molar heat capacity at constant volume (449.83 K, Fluid (supercritical or subcritical phases), Mass density=581.06 kg/m3): 255.7 ± 7.7 J/K/mol | molar heat capacity at constant volume (449.93 K, Fluid (supercritical or subcritical phases), Mass density=581.06 kg/m3): 255.7 ± 7.7 J/K/mol | molar heat capacity at constant volume (450.03 K, Fluid (supercritical or subcritical phases), Mass density=581.06 kg/m3): 251.62 ± 7.6 J/K/mol | molar heat capacity at constant volume (450.13 K, Fluid (supercritical or subcritical phases), Mass density=581.06 kg/m3): 249.63 ± 7.5 J/K/mol | molar heat capacity at constant volume (450.23 K, Fluid (supercritical or subcritical phases), Mass density=581.06 kg/m3): 255.82 ± 7.7 J/K/mol | molar heat capacity at constant volume (450.33 K, Fluid (supercritical or subcritical phases), Mass density=581.06 kg/m3): 253.78 ± 7.6 J/K/mol | molar heat capacity at constant volume (450.43 K, Fluid (supercritical or subcritical phases), Mass density=581.06 kg/m3): 253.78 ± 7.6 J/K/mol | molar heat capacity at constant volume (450.52 K, Fluid (supercritical or subcritical phases), Mass density=581.06 kg/m3): 253.84 ± 7.6 J/K/mol | molar heat capacity at constant volume (450.62 K, Fluid (supercritical or subcritical phases), Mass density=581.06 kg/m3): 253.54 ± 7.6 J/K/mol | molar heat capacity at constant volume (450.72 K, Fluid (supercritical or subcritical phases), Mass density=581.06 kg/m3): 251.86 ± 7.6 J/K/mol | molar heat capacity at constant volume (450.92 K, Fluid (supercritical or subcritical phases), Mass density=581.06 kg/m3): 253.72 ± 7.6 J/K/mol | molar heat capacity at constant volume (451.06 K, Fluid (supercritical or subcritical phases), Mass density=581.06 kg/m3): 251.62 ± 7.6 J/K/mol | molar heat capacity at constant volume (451.16 K, Fluid (supercritical or subcritical phases), Mass density=581.06 kg/m3): 252.94 ± 7.6 J/K/mol | molar heat capacity at constant volume (451.26 K, Fluid (supercritical or subcritical phases), Mass density=581.06 kg/m3): 249.63 ± 7.5 J/K/mol | molar heat capacity at constant volume (451.36 K, Fluid (supercritical or subcritical phases), Mass density=581.06 kg/m3): 249.63 ± 7.5 J/K/mol | molar heat capacity at constant volume (451.46 K, Fluid (supercritical or subcritical phases), Mass density=581.06 kg/m3): 249.69 ± 7.5 J/K/mol | molar heat capacity at constant volume (451.56 K, Fluid (supercritical or subcritical phases), Mass density=581.06 kg/m3): 249.69 ± 7.5 J/K/mol | molar heat capacity at constant volume (451.66 K, Fluid (supercritical or subcritical phases), Mass density=581.06 kg/m3): 251.8 ± 7.6 J/K/mol | molar heat capacity at constant volume (451.75 K, Fluid (supercritical or subcritical phases), Mass density=581.06 kg/m3): 250.3 ± 7.5 J/K/mol | molar heat capacity at constant volume (451.81 K, Fluid (supercritical or subcritical phases), Mass density=581.06 kg/m3): 247.95 ± 7.5 J/K/mol | molar heat capacity at constant volume (451.83 K, Fluid (supercritical or subcritical phases), Mass density=581.06 kg/m3): 250 ± 7.5 J/K/mol and 186.78 ± 5.6 J/K/mol | molar heat capacity at constant volume (451.83 K, Liquid): 186.78 ± 5.6 J/K/mol | molar heat capacity at constant volume (451.86 K, Fluid (supercritical or subcritical phases), Mass density=581.06 kg/m3): 181.85 ± 5.5 J/K/mol | molar heat capacity at constant volume (451.91 K, Fluid (supercritical or subcritical phases), Mass density=581.06 kg/m3): 175.18 ± 5.3 J/K/mol | molar heat capacity at constant volume (451.95 K, Fluid (supercritical or subcritical phases), Mass density=581.06 kg/m3): 179.26 ± 5.4 J/K/mol | molar heat capacity at constant volume (452.01 K, Fluid (supercritical or subcritical phases), Mass density=581.06 kg/m3): 174.52 ± 5.2 J/K/mol
